Test results taken from US4801616A, “Diphenylmethanone compounds and anti-inflammatory use thereof” (Eli Lilly and Company, priority 1986, dated 1989).
pIC50: −log10 of the molar value.

What follows are molecules tested against T1, 5-lipoxygenase (Cavia porcellus, UniProt A0A286X958) (assay: 5-Lipoxygenase (5-LPO) Assay, inhibition of 5-HETE formation in PMNL sonicate supernatant). Details: guinea pig PMNL sonicate supernatant, 37° C., 5 μM 14C-arachidonic acid.
T1 construct: incubating 0.2 ml of the supernatant obtained from the PMNL sonicate with the test compound; from tissue; host or cells: casein-elicited guinea pig peritoneal polymorphonuclear leukocytes (PMNL, more than 95 percent of the cells), sonicated, 30,000 x g supernatant
T1 sequence (A0A286X958 1-674): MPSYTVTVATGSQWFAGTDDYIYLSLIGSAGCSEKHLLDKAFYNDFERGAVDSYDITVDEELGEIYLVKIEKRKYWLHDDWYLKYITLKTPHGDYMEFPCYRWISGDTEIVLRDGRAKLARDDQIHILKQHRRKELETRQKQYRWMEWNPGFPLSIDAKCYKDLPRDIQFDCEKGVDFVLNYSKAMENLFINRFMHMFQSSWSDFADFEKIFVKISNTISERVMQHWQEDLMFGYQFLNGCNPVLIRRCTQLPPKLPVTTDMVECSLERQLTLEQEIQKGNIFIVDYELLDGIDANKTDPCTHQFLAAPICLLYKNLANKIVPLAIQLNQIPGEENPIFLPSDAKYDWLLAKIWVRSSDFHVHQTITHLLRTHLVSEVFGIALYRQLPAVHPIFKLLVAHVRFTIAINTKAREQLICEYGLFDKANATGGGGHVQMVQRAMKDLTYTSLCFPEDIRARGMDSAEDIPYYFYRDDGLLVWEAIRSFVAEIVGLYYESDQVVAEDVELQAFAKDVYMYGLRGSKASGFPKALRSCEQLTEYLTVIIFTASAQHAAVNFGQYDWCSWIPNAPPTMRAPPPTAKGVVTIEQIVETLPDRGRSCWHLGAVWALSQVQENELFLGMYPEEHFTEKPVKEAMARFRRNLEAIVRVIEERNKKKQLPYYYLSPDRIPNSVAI
Type: biochemical, guinea pig
Method: 5-Lipoxygenase (5-LPO) Assay
Ten milliliters of a 2% casein solution were injected intraperitoneally into guinea pigs weighing 250-300 gm. After 16-18 hours, the guinea pigs were killed by suffocation in a carbon dioxide chamber. The peritoneal cavity was infused with 70 ml of saline and 40-50 ml of the fluid were recovered from the cavity. After centrifugation, cell pellets were washed twice in Hank's balanced salt solution (HBSS) without calcium ion.
The cells were then suspended in 5 ml of sodium phosphate buffer, pH 7.1 containing 1 mM EDTA, and 0.1% gelatin. About 20-30×10^7 cells were obtained from one guinea pig.
The PMNL suspension was disrupted by five 1/2 second pulse sonications at the setting of 3 in a Branson Sonifier, Model 350, equipped with a microtip. The sonicates were combined and centrifuged at 30,000× g for 10 minutes. The supernatant was kept frozen at -70° C. until use.
Enzyme activity was determined by assaying for 5-HETE formation by first incubating 0.2 ml of the supernatant obtained from the PMNL sonicate with the test compound, 1 mM CaCl2, 2 mM ATP, and 1 mM GSH for 5 minutes at 37° C. The mixture is treated with 5 μM ^14 C-arachidonicacid and incubated at 37° C. an additional 10 minutes. The enzyme reaction was then stopped by the addition of 10 μl of 1M citric acid and 10μl of an alcohol solution containing 20 mg/ml each of indomethacin and butylated hydroxyanisole (BHA). The reaction mixture was spotted (50 μl on a silica gel plate (Baker TLC plate S1250-PA-19C) and subjected to TLC in a solvent system of ethyl acetate/2,2,4-trimethylpentane/glacial acetic acid/water (90:50:20:100).
The radioactivity of the arachidonic acid and its metabolites (5-HETE and LTB4) was visualized from a developed x-ray film which had been exposed to the TLC plate 1-2 days. The amount of 5-HETE formed was quantitated by scraping the silica gel area corresponding to the spot on the x-ray film, and the radioactivity determined in a Isocap/300 liquid scintillation counter (Searle Analytic, Inc.).
The percent inhibition of the formation of 5-HETE was determined for each concentration of test compound tested as compared to a control experiment wherein no test compound was added. The concentration and percent inhibition values were plotted on semi log paper and the concentration in which formation of 5-HETE is inhibited by 50% (IC50) was determined by interpolation.

Row | pIC50 | SMILES
1 | 5.23 | CCCc1c(O)ccc(C(=O)c2ccccc2O)c1O [Example 4, (2,4-Dihydroxy-3-propylphenyl)(2hydroxyphenyl)methanone]
2 | 5.88 | CCCc1c(OCCCCCCCCc2nnn[nH]2)ccc(C(=O)c2ccccc2O)c1O [Example 28, (2-Hydroxyphenyl)[2-hydroxy-3-propyl-4-([8-(1H-tetrazol-5-yl)octyl]oxy)phenyl]methanone]
3 | 5.44 | COc1ccccc1C(=O)c1ccc(OC)c(C)c1O [Example 9, (2-hydroxy-4-methoxy-3-methylphenyl)(2-methoxyphenyl)methanone]
4 | 5.55 | CCCc1c(OCCCCC#N)ccc(C(=O)c2ccccc2O)c1O [Example 11, 5-[3-Hydroxy-4-(2-hydroxybenzoyl)-2-propylphenoxy]pentanenitrile]
5 | 4.93 | CCCc1c(OCCCCCCc2nnn[nH]2)ccc(C(=O)c2ccccc2O)c1O [Example 25, (2-Hydroxyphenyl)[2-hydroxy-3-propyl-4-([6-(1H-tetrazol-5-yl)hexyl]oxy)phenyl]methanone]

Row | SMILES | pIC50
6 | CCCc1c(OCCCCc2nnn[nH]2)ccc(C(=O)c2ccccc2O)c1O [Example 26, (2-Hydroxyphenyl)(2-hydroxy-3-propyl-4[4-(1H-tetrazol-5-yl)butoxy]phenyl)methanone] | 5.90
7 | CCCc1c(OCCCCc2nnn[nH]2)ccc(C(=O)c2ccccc2OC)c1O [Example 23, (2-Hydroxy-3-propyl-4-[4-(1H-tetrazol-5-yl)butoxy]phenyl)(2-methoxyphenyl)methanone] | 5.77

Same assay, conditions: percent inhibition at 10 μg/ml

Row | inhibition at 10 µg/mL [%] | SMILES
8 | 37 | CCCc1c(OCCCCC(=O)O)ccc(C(=O)c2ccccc2O)c1O [Example 30, 5-[3-Hydroxy-4-(2-hydroxybenzoyl)-2-propylphenoxy]pentanoic acid]
